According to patent EP2353599A1, “8-hydroxyquinolines as inhibitors of cathepsin B” (University of Ljubljana, priority 2010, dated 2011):

How the values were obtained:
Cathepsin B [1] = biological target: T1, Cathepsin B (Homo sapiens, UniProt P07858); experiment: Cathepsin B endopeptidase activity, enzyme kinetics with substrate Z-RR-AMC; type: biochemical
Experimental: The effect of 8-hydroxyquinolines on cathepsin B enzymatic activity was assessed using enzyme kinetics. First, the effect of 8-hydroxyquinolines on cathepsin B endopeptidase activity was assessed using the cathepsin B specific endopeptidase substrate Z-RR-AMC. 5 µl of the Z-RR-AMC (final concentration 60, 180 and 360 µM) and 5 µl of respective compound at increasing concentrations were added to wells of a black microplate. 90 µl of human recombinant cathepsin B was then added to a final concentration of 0.4 nM in activation buffer (100 mM phosphate buffer, pH 6.0 with 0.1 % PEG, 5 mM DTT and 1.5 mM EDTA). All assay mixtures contained a constant amount of DMSO, i.e. 5 %. Formation of fluorescent degradation product was continuously monitored at 380 nm ± 20 nm excitation and […] ± 10 nm emission wavelengths on Tecan Safire^2™ at 37°C. Mechanism and the constant of inhibition (Ki) of cathepsin B endopeptidase activity were determined using the graphical method according to Cornish-Bowden (Cornish-Bowden A: A Simple Graphical Method for Determining the Inhibition Constants of Mixed, Uncompetitive and Non-Competitive Inhibitors. Biochem J 1974, 137:143-4.) and using the SigmaPlot® 11, Enzyme Kinetics Module™ 1.3. Table I. Results of testing the compounds according to Formula (I) on cathepsin B endopeptidase activity.

Cathepsin B [2] = biological target: T1, Cathepsin B; experiment: Cathepsin B exopeptidase activity, enzyme kinetics with substrate Abz-GIVRAK(Dnp)-OH; type: biochemical
Experimental: The effect of 5-nitro-8-hydroxyquinoline on cathepsin B exopeptidase activity was assessed with an exopeptidase substrate Abz-GIVRAK(Dnp)-OH. 5 µl of Abz-GIVRAK(Dnp)-OH (final concentration 1, 3 and 6 µM) and 5 µl of 5-nitro-8-hydroxyquinoline at increasing concentrations were added to wells of a black microplate. 90 µl of human recombinant cathepsin B was then added to a final concentration of 0.25 nM in activation buffer (60 mM acetate buffer, pH 5.0 with 0.1 % PEG, 5 mM DTT and 1.5 mM EDTA). All assay mixtures contained a constant amount of DMSO, i.e. 5 %.
Formation of fluorescent degradation product was continuously monitored at 320 nm ± 20 nm excitation and 420 nm ± 10 nm emission wavelengths on Tecan Safire^2™ at 37°C. Mechanism and the constant of inhibition (Ki) of cathepsin B exopeptidase activity were determined using the graphical method according to Cornish-Bowden (Cornish-Bowden A: A Simple Graphical Method for Determining the Inhibition Constants of Mixed, Uncompetitive and Non-Competitive Inhibitors. Biochem J 1974, 137:143-4.) and using the SigmaPlot® 11, Enzyme Kinetics Module™ 1.3.

Cathepsin B [3] = biological target: T1, Cathepsin B; experiment: Reversibility of cathepsin B inhibition by enzyme kinetics (100-fold dilution of enzyme-inhibitor complex); type: biochemical; conditions: for enzyme inhibition after dilution of the complex: inhibitor at 10-fold IC50, 100-fold dilution
Experimental: Reversibility of cathepsin B inhibition with 5-nitro-8-hydroxyquinoline was determined with three independent experiments. First, we used enzyme kinetics. Cathepsin B at 100-fold its final assay concentration (10 nM) and 5-nitro-8-hydroxyquinoline at 10-fold its IC50 were incubated for 5, 15 and 30 min at room temperature at 2 µl. The enzyme-inhibitor complex was then diluted 100-fold with 5 µM Z-RR-AMC to a final volume of 200 µl, initiating the reaction. Before the dilution of the enzyme-inhibitor complex the enzyme's activity is inhibited by 90 %. In the case of a reversible inhibitor after dilution this percentage is reduced to 9 %. In the case of an irreversible inhibitor the percentage stays unchanged (90 %).

Cathepsin B [4] = biological target: T1, Cathepsin B; experiment: Reversibility by mass spectrometry (ESI-MS of cathepsin B after incubation and dialysis); type: binding; conditions: equimolar inhibitor, 1 h room temperature, dialysis
Experimental: Third, reversibility of 5-nitro-8-hydroxyquinoline was also checked with mass spectrometry. Cathepsin B (4.4 µM) was activated in the activation buffer for 5 min at 37 °C. Afterwards, an equimolar amount of the inhibitor was added to the enzyme and incubated for 1 h at room temperature. The mixture was dialyzed against water five times using Microcon Centrifugal Filter Devices YM-10 to avoid salt interferences and to remove unbound molecules of the test compound. Samples were then prepared by adding an equal volume of acetonitrile containing 0.1 % formic acid and analyzed with ESI-MS on an AutoSpec Q instrument. As a positive control CA-074 was used.

MCF-10A neoT cells [5] = experiment: MTS cytotoxicity assay; type: cell-based; conditions: 10 µM, 24 h incubation
Experimental: A MTS assay was used to assess the cytotoxic effect of 5-nitro-8-hydroxyquinoline on MCF-10A neoT cells. 5 × 10^4 cells in 100 µl of medium were added to a single well of a 96-microtiter plate to which a 100 µl of 5-nitro-8-hydroxyquinoline solution (twice the final concentration) was added. After 24 h incubation the cells were washed and the medium was replaced with 100 µl of fresh medium to which a 20 µl of MTS was added. After 2 h incubation the absorbance was measured at 490 nm. The experiment was performed in quadruplicates and DMSO was used as control.

MCF-10A neoT cell = experiment: DQ-collagen IV degradation by fluorescence microscopy; type: cell-based; conditions: 10 µM, 24 h
Experimental: 5-nitro-8-hydroxyquinoline was also tested for the ability to inhibit intracellular and extracellular degradation of DQ-collagen IV. First, inhibitory effect was observed using fluorescence microscopy. Wells of precooled Lab-Tek™ Chambered Coverglass (Nalge Nunc International) were coated with 25 µg/ml of the quenched fluorescent substrate DQ-collagen IV suspended in 40 µl of 100 % Matrigel for 10 min at 4°C. DQ-collagen IV/Matrigel matrix was allowed to polymerize for 40 min at 37°C. 400 µl of MCF-10A neoT cell suspension (1.5x10^5/ml) in growth medium containing 2 % Matrigel and 10 µM of 5-nitro-8-hydroxyquinoline were plated onto gelled Matrigel. After 24 h incubation at 37°C with 5 % CO2 the samples were monitored for fluorescent degradation products using Olympus IX 81 motorized inverted microscope and CellR software. CA-074 and CA-074Me were used as positive controls.

MCF-10A neoT cells [6] = experiment: Intracellular DQ-collagen IV degradation by flow cytometry; type: cell-based; conditions: 50 µM, shift in fluorescence intensity
Experimental: Inhibition of intracellular DQ-collagen IV degradation was observed by flow cytometry by a shift in fluorescence intensity. 5 × 10^4 MCF-10A neoT cells in complete medium were plated into the wells of a 24-well plate and allowed to attach over night. Afterwards, the medium was replaced with 500 µl of serum free medium with 5-nitro-8-hydroxyquinoline, CA-074 or CA-074Me (50 µM). After 2 h incubation the medium was again replaced with serum free medium containing inhibitors (50 µM) and DQ-collagen IV (5 µg/ml). DMSO was used as a control. For the experiment only viable cells were selected using propidium iodide. The measurements were performed on a FACS Calibur instrument (Beckton Dickinson, Inc.).

Mechanism of inhibition (Cathepsin B [1]; cathepsin B endopeptidase activity): uncompetitive inhibition
Ki (Cathepsin B [1]; endopeptidase activity, substrate Z-RR-AMC, pH 6.0, 37°C): 37.7 ± 3.5 µM
Mechanism of inhibition (Cathepsin B [2]; cathepsin B exopeptidase activity): non-competitive
Ki (Cathepsin B [2]; exopeptidase activity, substrate Abz-GIVRAK(Dnp)-OH, pH 5.0, 37°C): 220 ± 13.3 µM
inhibits endopeptidase activity more potently than exopeptidase activity (Cathepsin B [2]; ratio of exopeptidase Ki to endopeptidase Ki): 5.8 times
enzyme inhibition after dilution of the complex (Cathepsin B [3]; 5 min incubation): 21.7 ± 2.2%
enzyme inhibition after dilution of the complex (Cathepsin B [3]; 15 min incubation): 25.2 ± 3.5%
enzyme inhibition after dilution of the complex (Cathepsin B [3]; 30 min incubation): 27.6 ± 3.2%
calculated value of inhibition (Cathepsin B [3]; expected inhibition after dilution considering the Hill coefficient): 15%
Molecular weight of cathepsin B after incubation with inhibitor (Cathepsin B [4]): did not alter
SMILES: O=[N+]([O-])c1ccc(O)c2ncccc12 [Compound 1, 5-nitro-8-hydroxyquinoline]
cytotoxic effect (cell viability, MTS) (MCF-10A neoT cells [5]): non-toxic
inhibition of DQ-collagen IV degradation (fluorescence microscopy) (MCF-10A neoT cell): inhibited both intracellular and extracellular DQ-collagen IV degradation
inhibition of intracellular DQ-collagen IV degradation (MCF-10A neoT cells [6]): significantly inhibits
